{"source": "patent US9101569B2", "about": "“Methods for the treatment of insulin resistance” (UNIVERSITE DE GENEVE, priority 2010, dated 2015)", "key": {"[1]": {"system": "differentiated 3T3-L1 adipocytes", "assay": "Lipid metabolism in differentiated 3T3-L1 adipocytes in vitro", "assay_type": "cell-based, Murine", "details": "24 h incubation, 5 μM OT", "method": "The in vitro effect of OT on lipid metabolism in differentiated 3T3-L1 adipocytes was assayed as follows. Murine 3T3-L1 fibroblasts were differentiated towards a […] phenotype as previously described (Olson et al., 1997, Mol. Cell. Biol., 2425-2435). In brief, cells were cultured in Dulbecco's modified eagle medium (DMEM) with 4.5 g/l glucose supplemented with 10% heat-inactivated depleted calf serum (DCS) at 37° C./8% CO2. Cells were induced to differentiate, two days post confluence, by sequential incubations with: DMEM 4.5 g/l glucose, 10% fetal bovine serum (FCS) containing 1 μg/ml insulin, 0.25 μM dexamethasone and 0.5 mM isobutylmethylxanthane (IBMX) for 4 days; DMEM 4.5 g/l glucose, 10% FCS containing insulin alone for an additional 4 days; DMEM 4.5 g/l glucose, 10% FCS for 3-4 days. Differentiation was considered achieved when more than 90% of cells display an accumulation of large lipid droplets in their cytoplasm."}, "[2]": {"assay": "Plasma measurements after i.c.v. OT infusion in HFD-induced obese rats", "assay_type": "in vivo, rat", "details": "rat, plasma, 1.6 nmol/day/rat; i.c.v. OT 1.6 nmol/d, 14 days; mean ± SEM; read-out: plasma Oxytocin", "method": "(§1) After three weeks of HFD feeding, rats were submitted to surgical procedures. They were anesthetized with intramuscular injection of ketamine-xylasine (Ketalar®-Rompun®, Parke-Davis and Bayer, Leverkusen, Switzerland) at 40 and 9 mg/kg, respectively, and implanted with a cannula in the right lateral cerebral ventricle fixed on the skull with dental cement, as previously described (Rohner-Jeanrenaud et al., 1989, Endocrinology 124, 733-9). After one week of recovery, the drinking response to i.c.v. injection of Angiotensin II (5 ng/μl) (Novabiochem, Laüfelfingen, Switzerland) was measured to confirm the correct placement of the cannula. At the end of the fifth week of high fat diet feeding, osmotic minipumps (Alzet®, model 2001, Alza Corporation, Cupertino, Calif.) delivering oxytocin (NeoMPS®, Strasbourg, France) or its vehicle (NaCl 0.9%) were subcutaneously implanted and connected to the i.c.v. cannula via a polyethylene catheter, as previously described (Rohner-Jeanrenaud et al., 1989, above). OT was delivered at a dose of 1.6 nmol/day/rat or 16 nmol/day/rat during 14 days. A group of vehicle-infused rats was pair-fed to the amount of food consumed by OT-infused animals in order to assess the effects of OT independently from changes in food intake. The pair-feeding regimen consisted in giving one-third of the daily food amount in the morning and the remaining two-thirds just before onset of darkness. Rats were sacrificed using isoflurane anesthesia (Halocarbon Laboratories, River Edge, N.J.) and rapid decapitation between 09:00 and 13:00 h. Blood samples were collected into EDTA-coated tubes, centrifuged and plasma stored at −20° C. Tissues were rapidly removed, freeze-clamped, and stored at −80° C.\n(§2) To determine the effect of OT on peripheral metabolism, levels of plasma glucose, insulin, leptin, FFA, glycerol and TG were determined. Plasma glucose was measured by the glucose oxidase method (Glu, Roche Diagnostics GmbH, Rotkreuz, Switzerland). Plasma non-esterified fatty acid (NEFA) and triglyceride (TG) levels were determined using NEFA C and TG enzymatic PAP150 commercial kits from Wako Chemicals GmbH (Neuss, Germany) and Biomérieux (Marcy l'Etoile, France), respectively. Plasma OT levels were determined using an ELISA, as previously described (Pequeux et al., 2001, Scand. J. Clin. Lab. Invest., 61, 407-415). Plasma glycerol levels were measured using the free Glycerol Reagent (Sigma)."}, "HFD-induced obese rats [3]": {"system": "HFD-induced obese rats", "assay": "Plasma measurements after i.c.v. OT infusion in HFD-induced obese rats", "assay_type": "in vivo, rat", "method": "as §1, §2"}, "HFD-induced obese rats [4]": {"system": "HFD-induced obese rats", "assay": "High-fat diet-induced obesity rat model, subcutaneous infusion: body weight gain, food intake, body composition", "assay_type": "in vivo", "details": "s.c. OT 50 nmol/day, 10 days, independent of food intake"}, "HFD-induced obese rats [5]": {"system": "HFD-induced obese rats", "assay": "Plasma glycerol after subcutaneous OT infusion in HFD-induced obese rats", "assay_type": "in vivo, rat", "details": "peripheral (s.c.) OT 50 nmol/day", "method": "(§3) Another group of the above male Wistar rats were rendered obese as described above and were subcutaneously infused with saline or OT (NeoMPS®, Strasbourg, France) (50 nmol/day/rat) during 14 days.\nas §2"}, "HFD-induced obese rats [6]": {"system": "HFD-induced obese rats", "assay": "High-fat diet-induced obesity rat model, subcutaneous infusion: body weight gain, food intake, body composition", "assay_type": "in vivo", "method": "as §3\nThe beneficial metabolic effects of OT administration were assayed in the same high-fat diet induced obesity model in rats as in Example 1 and in PPAR-alpha knockout mice (Lee et al., 1995, Mol. Cell. Biol., 15(6):3012-22). HFD-induced obese animals, saline or OT groups (see conditions under Example 1) were subcutaneously infused via minipumps (Alzet®, as above). OT was delivered at a dose of 50 nmol/day/rat during 14 days.\nAn EchoMRI-700 quantitative nuclear magnetic resonance (QMR) analyzer (Echo Medical Systems, Houston, Tex.) was used to measure total fat mass and lean body mass in rats at the beginning and the end of the treatment.\nThe beneficial metabolic effects of administration of an oxytocin derivative according to the invention (Carbetocin) were assessed in the same rat model of high-fat diet induced obesity as in Example 1. HFD-induced obese animals were subcutaneously infused via minipumps (Alzet®, as above) with saline or carbetocin (Bachem) (5 nmol/day/rat or 50 nmol/day/rat) during 14 days.\nBody composition parameters were measured by quantitative nuclear magnetic resonance as described in Example 3 at the beginning and 10 days of treatment."}, "[7]": {"system": "epididymal white adipose tissue (eWAT)", "assay": "eWAT endocannabinoid content after i.c.v. OT infusion", "assay_type": "in vivo, rat"}, "[8]": {"details": "i.c.v. OT 1.6 nmol/d, 14 days, mean ± SEM"}, "[9]": {"details": "i.c.v. OT 1.6 nmol/d, 14 days, mean ± SEM, listed as Oxytocin"}}, "data": [{"smiles": "CC[C@H](C)[C@@H]1NC(=O)[C@H](Cc2ccc(O)cc2)NC(=O)[C@@H](N)CSSC[C@@H](C(=O)N2CCC[C@H]2C(=O)N[C@@H](CC(C)C)C(=O)NCC(N)=O)NC(=O)[C@H](CC(N)=O)NC(=O)[C@H](CCC(N)=O)NC1=O", "note": "[OT, Cys-Tyr-Ile-Gln-Asn-Cys-Pro-Leu-Gly (SEQ ID NO: 1)]", "values": [{"measurement": "OEA content", "setting": "[1]", "value": "increased"}, {"measurement": "PPAR-alpha mRNA expression", "setting": "[1]", "value": "stimulatory effect"}, {"measurement": "mRNA expression of all the lipid metabolism-related genes affected by central OT infusion", "setting": "[1]", "value": "increased"}, {"measurement": "Scd1 mRNA expression", "setting": "[1]; relative to effect in centrally infused rats", "value": "less marked"}, {"measurement": "level at 336 h", "setting": "[2]", "value": "0.0218 ± 0.0058", "unit": "ng/mL"}, {"measurement": "plasma glycerol levels", "setting": "HFD-induced obese rats [3]; central (i.c.v.) OT 1.6 nmol/day", "value": "increased"}, {"measurement": "plasma 2-AG", "setting": "HFD-induced obese rats [3]; [8]", "value": "53 ± 4.9", "unit": "pmol/mL"}, {"measurement": "plasma AEA", "setting": "HFD-induced obese rats [3]; [8]", "value": "19 ± 2.3", "unit": "pmol/mL"}, {"measurement": "plasma FFA", "setting": "HFD-induced obese rats [3]; [8]", "value": "unchanged"}, {"measurement": "plasma Glucose", "setting": "HFD-induced obese rats [3]; [8]", "value": "unchanged"}, {"measurement": "plasma Insulin", "setting": "HFD-induced obese rats [3]; [8]", "value": "unchanged"}, {"measurement": "plasma Leptin", "setting": "HFD-induced obese rats [3]; [8]", "value": "unchanged"}, {"measurement": "plasma OEA", "setting": "HFD-induced obese rats [3]; [8]", "value": "178 ± 15", "unit": "pmol/mL"}, {"measurement": "plasma Oxytocin", "setting": "HFD-induced obese rats [3]; [8]", "value": "increased"}, {"measurement": "plasma PEA", "setting": "HFD-induced obese rats [3]; [8]", "value": "1.63 ± 0.15", "unit": "nmol/mL"}, {"measurement": "plasma TG", "setting": "HFD-induced obese rats [3]; [8]", "value": "decreased"}, {"measurement": "plasma FFA", "setting": "HFD-induced obese rats [3]; [9]", "value": "0.70 ± 0.06", "unit": "mmol/L"}, {"measurement": "plasma Glucose", "setting": "HFD-induced obese rats [3]; [9]", "value": "159.5 ± 4.1", "unit": "mg/dL"}, {"measurement": "plasma Insulin", "setting": "HFD-induced obese rats [3]; [9]", "value": "1.7 ± 0.3", "unit": "ng/mL"}, {"measurement": "plasma Leptin", "setting": "HFD-induced obese rats [3]; [9]", "value": "11.3 ± 2.2", "unit": "ng/mL"}, {"measurement": "plasma TG", "setting": "HFD-induced obese rats [3]; [9]", "value": "0.80 ± 0.05", "unit": "mmol/L"}, {"measurement": "fat mass (QMR)", "setting": "HFD-induced obese rats [4]", "value": "significant decrease"}, {"measurement": "percent lean body mass (QMR)", "setting": "HFD-induced obese rats [4]", "value": "increase"}, {"measurement": "plasma glycerol levels", "setting": "HFD-induced obese rats [5]", "value": "increased"}, {"measurement": "food intake", "setting": "HFD-induced obese rats [6]; s.c. 50 nmol/day, 14 days", "value": "decreased"}, {"measurement": "body weight gain", "setting": "HFD-induced obese rats [6]; s.c. 50 nmol/day, 14 days, not observed in pair-fed group", "value": "decreased"}, {"measurement": "fat mass by weighing adipose tissue depots", "setting": "HFD-induced obese rats [6]; s.c. OT 50 nmol/day", "value": "food intake-independent decrease"}, {"measurement": "eWAT OEA content", "setting": "[7]; chronic i.c.v. OT 1.6 nmol/d, compared with saline", "value": "increased"}, {"measurement": "eWAT content of other endocannabinoids (PEA, AEA, 2-AG)", "setting": "[7]; chronic i.c.v. OT infusion", "value": "not modifying"}, {"measurement": "stimulatory effect on OEA content", "setting": "[7]; i.c.v. 1.6 nmol/d (lower dose)", "value": 1.3, "unit": "folds"}, {"measurement": "stimulatory effect on OEA content", "setting": "[7]; i.c.v. 16 nmol/d", "value": 2, "unit": "folds"}]}]}
